Data reported in the CombiSolv-Exp solvation set (Vermeire and Green 2021).

Assay: solvent given as SMILES

C=CCCCC
Settings	solvation free energy, 298 K [kcal/mol]
in C1CCC2CCCCC2C1	-3.67
in C1CCC(C2CCCCC2)CC1	-3.65
in C=CCCCCCCCCCCCCCC	-3.48
in CC#N	-2.96
in CC(C)CC(C)(C)C	-3.78
in CCC#N	-3.49
in CCCC#N	-3.2
in CCCCC(CC)COC(=O)CCCCC(=O)OCC(CC)CCCC	-3.36
in CCCCC(CC)COC(=O)c1ccccc1C(=O)OCC(CC)CCCC	-3.18
in CCCCCCC	-3.83
in CCCCCCCCC=CCCCCCCCC(=O)OCC(COC(=O)CCCCCCCC=CCCCCCCCC)OC(=O)CCCCCCCC=CCCCCCCCC	-3.41
in CCCCCCCCCCCCCCCC	-3.51
in CCCCCCCCO	-3.29
in CCCCCO	-3.3
in CCCCO	-3.22
in CCCCOC(=O)c1ccccc1C(=O)OCCCC	-3.37
in CCN1CCCC1=O	-3.11
in CCN(CC)C(C)=O	-3.26
in CCNC(C)=O	-3.04
in CCNC=O	-2.85
in CCOC(=O)c1ccccc1C(=O)OCC	-2.96
in CN1CCCC1=O	-2.91
in CN1CCCCC1=O	-3.06
in CN1CCN(C)C1=O	-2.83
in CN(C)C=O	-2.96
in CNC=O	-2.55
in COC(C)=O	-3.51
in CS(C)=O	-2.1
in Cc1cccc(C)c1	-3.74
in N#CCCCCC#N	-2.31
in N#Cc1ccccc1	-3.15
in NC=O	-0.91
in NCCO	-1.17
in Nc1ccccc1	-2.68
in O	1.58
in O=C1CCCO1	-2.49
in O=CN1CCOCC1	-2.37
in O=Cc1ccco1	-2.62
in OCCO	-1.11
in OCCOCCO	-1.73
in OCCOCCOCCO	-1.83
in OCCOCCOCCOCCO	-1.94
in OCc1ccco1	-2.53
in c1ccc2c(c1)CCCC2	-3.69
in c1ccc(C2CCCCC2)cc1	-3.63

O=C(O)Cc1ccc(C(=O)O)cc1
Settings	solvation free energy, 298 K [kcal/mol]
in C=CCCCCCCCCCCCCCC	-10.5
in O	-16.5

FC(F)(F)Br
Settings	solvation free energy, 298 K [kcal/mol]
in O	1.79

C=C1CCC(C(C)C)c2cc(C)ccc21 (stereo not drawn)
Settings	solvation free energy, 298 K [kcal/mol]
in O	-1.08

CCOCCOC(C)=O
Settings	solvation free energy, 298 K [kcal/mol]
in O	-5.31

CCSC
Settings	solvation free energy, 298 K [kcal/mol]
in O	-1.5

COc1ccccc1O
Settings	solvation free energy, 298 K [kcal/mol]
in O	-5.67

CC1CCC(C)O1 (stereo not drawn)
Settings	solvation free energy, 298 K [kcal/mol]
in O	-2.92

Clc1ccc(-c2ccc(Cl)c(Cl)c2Cl)c(Cl)c1Cl
Settings	solvation free energy, 298 K [kcal/mol]
in O	-3.6

Cc1ccc(CO)cc1
Settings	solvation free energy, 298 K [kcal/mol]
in O	-7.12

Clc1cc(Cl)cc(Cl)c1
Settings	solvation free energy, 298 K [kcal/mol]
in CCCCCC	-6.96
in CCCCCCCCO	-6.62
in O	-0.78

CC1=CC(=O)CC(C)(C)C1
Settings	solvation free energy, 298 K [kcal/mol]
in O	-5.18

CN1CCN(C)CC1
Settings	solvation free energy, 298 K [kcal/mol]
in O	-7.58

CCC(=O)CC(C)=O
Settings	solvation free energy, 298 K [kcal/mol]
in O	-4.79

FC(F)(Cl)C(F)(F)Cl
Settings	solvation free energy, 298 K [kcal/mol]
in CCCCCCCC(=O)OCC(COC(=O)CCCCCCC)OC(=O)CCCCCCC	-1.63
in CCCCCCCCO	-1.61
in CN1CCCC1=O	-1.49
in CN(C)C=O	-1.6
in O	2.25

CC1CCCCC1O (stereo not drawn)
Settings	solvation free energy, 298 K [kcal/mol]
in O	-4.79

CCCCCCCCP(=O)(CCCCCCCC)CCCCCCCC
Settings	solvation free energy, 298 K [kcal/mol]
in O	-15.5

Ic1ccccc1
Settings	solvation free energy, 298 K [kcal/mol]
in C1CCOC1	-7.38
in C1COCCO1	-7.22
in CCCCCCC	-6.27
in CCCCCCCCCCCCCCCC	-6.11
in CN(C)C=O	-7.09
in ClC(Cl)(Cl)Cl	-6.81
in N#Cc1ccccc1	-6.98
in O	-1.75
in OCCO	-5.28

FC(F)(Cl)C(F)(Cl)Cl
Settings	solvation free energy, 298 K [kcal/mol]
in C1CCOC1	-3.37
in CC(C)=O	-3.31
in CCC(C)=O	-3.36
in CCOC(C)=O	-3.4
in COC(C)(C)C	-3.62
in COC(C)=O	-3.38
in Cc1cccc(C)c1	-3.37
in ClC(Cl)(Cl)Cl	-3.27
in ClC(Cl)Cl	-3.46
in ClCCCl	-2.8
in O	1.77

Cc1cc(O)ccc1[N+](=O)[O-]
Settings	solvation free energy, 298 K [kcal/mol]
in CCCCOCCCC	-12.1
in O	-9.89

C=CC(=C)C
Settings	solvation free energy, 298 K [kcal/mol]
in BrC(Br)C(Br)Br	-2.83
in Brc1cccc2ccccc12	-2.82
in C1=Cc2ccccc2C1	-3.1
in CC1COC(=O)O1	-2.45
in CC(=O)N(C)C	-2.89
in CC(=O)OCc1ccccc1	-2.93
in CC(=O)c1ccccc1	-2.93
in CC(C)CC(C)(C)C	-3.16
in CCC(C)=O	-3.27
in CCCCC#N	-3.06
in CCCCCC#N	-3.11
in CCCCCCC	-3.22
in CCCCCCCC	-3.18
in CCCCCCCCO	-2.81
in CCCCO	-2.89
in CCNC(C)=O	-2.81
in CCOC(C)=O	-3.29
in CN1CCCC1=O	-2.89
in CN(C)C=O	-2.88
in CN(C)P(=O)(N(C)C)N(C)C	-2.89
in CNC(C)=O	-2.74
in CNC=O	-2.44
in CS(C)=O	-2.38
in Cc1cccc2ccccc12	-2.94
in Cc1cccc(O)c1	-2.72
in ClC(Cl)(Cl)Cl	-3.49
in ClC(Cl)C(Cl)Cl	-3.21
in ClCCCl	-3.3
in Clc1cccc2ccccc12	-2.81
in N#CCCCC#N	-2.06
in N#CCCCCC#N	-2.35
in N#CCc1ccccc1	-2.7
in N#Cc1ccccc1	-3
in NCc1ccccc1	-2.85
in Nc1ccccc1	-2.56
in O	0.68
in O=C1CCCCC1	-3.22
in O=C(O)C(Cl)Cl	-2.77
in OCCO	-1.12
in OCc1ccccc1	-2.56
in c1ccc2ncccc2c1	-2.82

CC(C)C
Settings	solvation free energy, 298 K [kcal/mol]
in C1CCC2CCCCC2C1	-2
in CC1COC(=O)O1	-0.87
in CC(C)(C)O	-1.86
in CC(C)=O	-1.87
in CC(C)CCO	-1.8
in CC(C)CO	-1.8
in CC(C)O	-1.9
in CCC(C)(C)O	-1.92
in CCC(C)CO	-1.8
in CCC(C)O	-1.79
in CCC(O)CC	-1.83
in CCCC(C)O	-1.8
in CCCCC	-2.38
in CCCCCC	-2.33
in CCCCCCC	-2.31
in CCCCCCCC	-2.3
in CCCCCCCCC	-2.2
in CCCCCCCCCC	-2.23
in CCCCCCCCCCCCCCCC	-1.91
in CCCCCCCO	-1.68
in CCCCCO	-1.79
in CCCCO	-1.91
in CCCO	-1.77
in CCO	-1.64
in CCOC(C)=O	-2.16
in CCOCC	-2.33
in CN1CCCC1=O	-1.2
in CN(C)C=O	-1.32
in CN(C)P(=O)(N(C)C)N(C)C	-1.53
in CO	-1.46
in COCCOCCOCCOC	-1.18
in CS(C)=O	-0.53
in Cc1ccc(C)cc1	-2.06
in Cc1cccc(C)c1	-2.07
in Cc1ccccc1C	-2.04
in ClC(Cl)(Cl)Cl	-2.37
in Clc1ccccc1	-2.25
in Nc1ccccc1	-1.07
in O	2.32
in O=CN1CCOCC1	-0.64
in OC1CCCCC1	-1.55
in OCCCOCCCO	-0.87
in OCCO	-0.19
in OCc1ccccc1	-1.16
in c1ccccc1	-2.08

CCCCCCCCO
Settings	solvation free energy, 298 K [kcal/mol]
in CC(C)CC(C)(C)C	-6.52
in CCC(C)=O	-8.2
in CCCCCCC	-6.38
in CCCCCCCCCCCCCCCC	-6.17
in CCCCCCCCCO	-8.45
in CCCCCCO	-8.58
in CCCCCl	-7.22
in CO	-8.03
in NC=O	-6.49
in O	-4.07

CCCc1ccc(O)c(OC)c1
Settings	solvation free energy, 298 K [kcal/mol]
in O	-5.26

C=CCCCCCCCCCC
Settings	solvation free energy, 298 K [kcal/mol]
in CN(C)C=O	-6.25
in O	2.58

CCn1ccc(NS(=O)(=O)c2ccc(N)cc2)nc1=O
Settings	solvation free energy, 298 K [kcal/mol]
in O	-20.6

CC(C)(C)CCO
Settings	solvation free energy, 298 K [kcal/mol]
in CCCCCCCC	-4.85
in CCCCCCCCCC	-4.72

COP(=S)(OC)SCn1nnc2ccccc2c1=O
Settings	solvation free energy, 298 K [kcal/mol]
in O	-10
